Measured values published in publication PMC10079954, “Rational design of phase separating peptides based on phase separating protein sequence of p53” (Scientific Reports, 2023).
Values belong to the molecule of their own block, whether it stands above or below them.

How the values were obtained:
[1] = tested on: p53 monomer (L344P) mutant; experiment: Recruitment (enrichment index) of p53 monomer into designed peptide droplets; design: species or system human
Excerpt: (§1) We prepared p53 tetramer, dimer, and monomer mutants, as described previously[8],[37],[50]. For the p53 tetramer, a thermostable and cysteine-modified human p53 mutant (C124A, C135V, C141V, W146Y, C182S, V203A, R209P, C229Y, H233Y, Y234F, N235K, Y236F, T253V, N268D, C275A, C277A, and K292C) was used[50]. The dimer and monomer mutants of p53 corresponded to L344A and L344P of the tetramer sequence, respectively[8],[37]. These p53 mutants were expressed with a glutathione S-transferase (GST) tag in E. coli and purified after cleavage of the GST tag, as described previously[50],[51]. The oligomeric state of p53 mutants was confirmed using a gel filtration column (Superdex 200; GE Healthcare). p53 mutants were labeled with Atto488 (ATTO-TEC) or Alexa488 (Thermo Fisher) using maleimide chemistry and then purified using a heparin column (GE Healthcare). We prepared Alexa488-labeled FUS-MBP as described previously[37],[39].
(§2) Recruitment evaluations were performed following the method described in our previous studies[37],[41]. Solutions containing 0.9–1.8 mM designed peptides, 0.1 µM Alexa488-labeled p53 mutants or Alexa488, 25 mM HEPES, 0.5 mM EDTA, and 1 mM DTT at pH 7.0 were used. The solutions were then incubated at 22 °C for five minutes. The aforementioned microscope was used with HILO illumination. To prevent photo-bleaching of the fluorescent samples, we used a laser power of 0.15 mW. The images were acquired at 22 °C. Using the ImageJ software, we calculated the EI values of the individual droplets as follows:2 EI=Idroplet/Isolution, where Idroplet and Isolution represent the average fluorescence intensities of the individual droplets and solutions near the droplets with background substitution, respectively.

[2] = tested on: p53 tetramer; experiment: Recruitment (enrichment index) of p53 tetramer into designed peptide droplets; design: species or system human; conditions: no salt, pH 7.0
Excerpt: as §1, §2

[3] = Salt and 1,6-hexanediol dependence of droplet/aggregate formation (scattering at 350 nm, DIC); assay type: physicochemical; conditions: 1 mM peptide, 25 mM HEPES, 0.5 mM EDTA, pH 7.0, 22 °C; scattering at 350 nm and DIC
Protocol: We detected light scattering corresponding to the designed peptide droplets by measuring OD350 values using an absorbance spectrometer (NanoDrop One; Thermo Fisher).
(A, B) Effect of additives, 1,6-hexandiol (1,6-HD) and NaCl, on aggregate formation of DPp53N-GSGS-DPp53C2 was monitored as the scattering intensity observed at 350 nm (A) and via DIC images (B). The measurements were conducted in a solution containing 25 mM HEPES, 0.5 mM EDTA, and 1 mM DPp53N-GSGS-DPp53C2 in the presence or absence of additives at pH 7.0 and 22 °C.
Fig. S7 Designed peptide droplets are sensitive to salt concentration but not to 1,6-hexandiol. (A, B) Salt-concentration dependence of droplet formation of designed peptides monitored as the scattering intensity at 350 nm (A) and via DIC images (B). (C, D) Effect of 1,6-hexandiol on droplet formation of designed peptides monitored as the scattering intensity at 350 nm (C) and via DIC images (D). The measurements were performed in a solution containing 1 mM designed peptides, 25 mM HEPES, and 0.5 mM EDTA at pH 7.0 and 22 °C. In panels (A) and (C), the errors denote the standard errors of at least three measurements.

[4] = Phase separation of designed peptides by DIC and fluorescence microscopy; assay type: physicochemical; conditions: DIC microscopy; 0.9–1.8 mM peptide, 25 mM HEPES, 0.5 mM EDTA, pH 7.0, no salt, MPC polymer-coated coverslip, 20 or 22 °C
Protocol: Differential interference contrast (DIC) microscopy confirmed that these peptides (0.9–1.8 mM) underwent phase separation in 25 mM HEPES and 0.5 mM EDTA at pH 7.0 (Fig. 2B). To prevent the melting of clusters on the coverslip surface, 2-methacryloyloxyethyl phosphorylcholine (MPC) polymer coating was used[36],[37] (Supplementary Fig. S1). Samples were prepared by sonicating a 2 mM peptide solution or diluting the peptide solution from a 10 mM peptide stock after storage under freezing conditions. Four of the designed peptides, except DPp53N-GSGS-DPp53C2, formed μm-sized spherical clusters. Fluorescence microscopy confirmed the high concentration of peptides labeled with the fluorescent dye Alexa488 in the clusters (Fig. 2B). […] Cross-β structure was also supported by the observation of intrinsic fluorescence upon 400–440 nm excitation[40] (Supplementary Fig. S2). […]
(§3) The DIC and fluorescence modes of an inverted microscope (IX-73; Olympus, Tokyo, Japan) equipped with microscopic objectives (60 × and 10 ×) and a camera (DP74) were used, as described previously. […] DIC and fluorescence images were obtained at 20 or 22 °C. For intrinsic fluorescence measurements, the excitation and detection wavelengths were 440–440 nm and larger than 460 nm, respectively.

[5] = Cross-β structure detection with amyloid-sensitive probe Picogreen; assay type: physicochemical; conditions: Picogreen 25 µM, 25 mM HEPES, 0.5 mM EDTA, pH 7.0
Protocol: Differential interference contrast (DIC) microscopy confirmed that these peptides (0.9–1.8 mM) underwent phase separation in 25 mM HEPES and 0.5 mM EDTA at pH 7.0 (Fig. 2B). To prevent the melting of clusters on the coverslip surface, 2-methacryloyloxyethyl phosphorylcholine (MPC) polymer coating was used[36],[37] (Supplementary Fig. S1). Samples were prepared by sonicating a 2 mM peptide solution or diluting the peptide solution from a 10 mM peptide stock after storage under freezing conditions. Four of the designed peptides, except DPp53N-GSGS-DPp53C2, formed μm-sized spherical clusters. Fluorescence microscopy confirmed the high concentration of peptides labeled with the fluorescent dye Alexa488 in the clusters (Fig. 2B). […] Cross-β structure was also supported by the observation of intrinsic fluorescence upon 400–440 nm excitation[40] (Supplementary Fig. S2). Clusters of aromatic W residues in DPp53N-GSGS-DPp53C2 may lead to the formation of solid aggregates, which is consistent with the results of different systems[21],[34].
as §3, with “previously. We used the solution containing 0.9–1.8 mM designed peptide, 0.1 μM Alexa488-labeled peptide, 25 mM HEPES, and 0.5 mM EDTA at pH 7.0. To detect the cross-β structure, picogreen was added at 25 µM for DPp53N-GSGS-DPp53C2 or 2.5 µM for others instead of the Alexa488-labeled peptide.” for “previously.”
Fig. S8 Time course of cross-β structure formation of designed peptides in droplets monitored by DIC and fluorescence images. The fluorescence was detected corresponding to the amyloid marker Picogreen at 2.5 µM in a solution containing 0.9 mM designed peptides, 25 mM HEPES, and 0.5 mM EDTA at pH 7.0 and 22 °C.

[6] = tested on: p53 dimer (L344A) mutant; experiment: Recruitment (enrichment index) of p53 dimer into designed peptide droplets; design: species or system human; conditions: (GGGS)3-linker versus GSGS-linker droplets; no salt, pH 7.0
Excerpt: as §1
Recruitment evaluations were performed following the method described in our previous studies[37],[41]. […] Using the ImageJ software, we calculated the EI values of the individual droplets as follows:2 EI=Idroplet/Isolution, where Idroplet and Isolution represent the average fluorescence intensities of the individual droplets and solutions near the droplets with background substitution, respectively.

[7] = target: 5-FAM-labeled DP_(p53N); experiment: fluorescence polarisation; fluorescence anisotropy; non-labeled peptide titrated into 40 nM 5-FAM-labeled DP_(p53N); 25 mM HEPES, 0.5 mM EDTA, 2 mg/mL BSA, 2 mM Trolox, pH 7.0, 25 °C; one-to-one binding model

Molecule: RRRVVQRRRRGSGSDDDASQEDDD [DPp53N-GSGS-DPp53C1]
- Enrichment index (EI) of p53 monomer (L344P) mutant in peptide droplets ([1]; 0.9–1.8 mM designed peptide, 0.1 µM Alexa488-labeled p53, 25 mM HEPES, 0.5 mM EDTA, 1 mM DTT, pH 7.0, 22 °C, ± standard error, SEM): 14.7 ± 0.5
- Decrease of average EI of p53 tetramer relative to p53 monomer ([2]; droplet interior regions, surface not included): 2.6 fold

Molecule: RRRVVQRRRRGGGSGGGSGGGSDDDDDDD [DPp53N-(GGGS)3-D7]
- Decrease of average EI of p53 monomer mutant compared to the GSGS-linker peptide ([1]; (GGGS)3-linker versus GSGS-linker droplets, no salt, pH 7.0): 1.8 fold
- Increase of average EI of p53 tetramer compared to the GSGS-linker peptide ([2]; (GGGS)3-linker versus GSGS-linker droplets): 3.1 fold
- Increase of average EI of p53 dimer mutant compared to the GSGS-linker peptide [6]: 3.3 fold

Second part, led by results:

- Aggregate formation at high concentrations of salt and 1,6-hexanediol [3]: not significantly suppressed
- Picogreen fluorescence of clusters [5]: high intensity
Molecule: RRRVVQRRRRGSGSEDDDWWMWWD [DPp53N-GSGS-DPp53C2]
- Cluster morphology (phase separation) [4]: non-spherical clusters that corresponded to solid aggregates

- fold higher affinity than the DP (p53C)1 fragment for the DP (p53N) fragment [7]: 2 fold
B1: GSGS-D7 (peptide)
peptide: GSGSDDDDDDD
